# Results from ChEMBL document CHEMBL3991601, “The target landscape of clinical kinase drugs” (Science, 2017).
# pKd: −log10 of the molar value. Calls of active or inactive are those of the source.
# Molecular target: Protein kinase C alpha type (Homo sapiens, UniProt P17252)
# Note: in the data inactive means no Kd found up to 30 µM.
row,Structure (SMILES),Kd
1,Cc1cn(-c2cc(NC(=O)c3ccc(C)c(Nc4nccc(-c5cccnc5)n4)c3)cc(C(F)(F)F)c2)cn1 [NILOTINIB],> 30 µM (inactive)
2,C1=C/COCc2cc(ccc2OCCN2CCCC2)Nc2nccc(n2)-c2cccc(c2)COC/1 [PACRITINIB],0.934 µM (active)
3,C=CC(=O)N1CCC(Oc2cc3c(Nc4ccc(Cl)c(Cl)c4F)ncnc3cc2OC)CC1 [POZIOTINIB],> 30 µM (inactive)

# Molecular target: Chromodomain-helicase-DNA-binding protein 4 (Homo sapiens, UniProt Q14839)
# Sequence (Q14839 whole entry): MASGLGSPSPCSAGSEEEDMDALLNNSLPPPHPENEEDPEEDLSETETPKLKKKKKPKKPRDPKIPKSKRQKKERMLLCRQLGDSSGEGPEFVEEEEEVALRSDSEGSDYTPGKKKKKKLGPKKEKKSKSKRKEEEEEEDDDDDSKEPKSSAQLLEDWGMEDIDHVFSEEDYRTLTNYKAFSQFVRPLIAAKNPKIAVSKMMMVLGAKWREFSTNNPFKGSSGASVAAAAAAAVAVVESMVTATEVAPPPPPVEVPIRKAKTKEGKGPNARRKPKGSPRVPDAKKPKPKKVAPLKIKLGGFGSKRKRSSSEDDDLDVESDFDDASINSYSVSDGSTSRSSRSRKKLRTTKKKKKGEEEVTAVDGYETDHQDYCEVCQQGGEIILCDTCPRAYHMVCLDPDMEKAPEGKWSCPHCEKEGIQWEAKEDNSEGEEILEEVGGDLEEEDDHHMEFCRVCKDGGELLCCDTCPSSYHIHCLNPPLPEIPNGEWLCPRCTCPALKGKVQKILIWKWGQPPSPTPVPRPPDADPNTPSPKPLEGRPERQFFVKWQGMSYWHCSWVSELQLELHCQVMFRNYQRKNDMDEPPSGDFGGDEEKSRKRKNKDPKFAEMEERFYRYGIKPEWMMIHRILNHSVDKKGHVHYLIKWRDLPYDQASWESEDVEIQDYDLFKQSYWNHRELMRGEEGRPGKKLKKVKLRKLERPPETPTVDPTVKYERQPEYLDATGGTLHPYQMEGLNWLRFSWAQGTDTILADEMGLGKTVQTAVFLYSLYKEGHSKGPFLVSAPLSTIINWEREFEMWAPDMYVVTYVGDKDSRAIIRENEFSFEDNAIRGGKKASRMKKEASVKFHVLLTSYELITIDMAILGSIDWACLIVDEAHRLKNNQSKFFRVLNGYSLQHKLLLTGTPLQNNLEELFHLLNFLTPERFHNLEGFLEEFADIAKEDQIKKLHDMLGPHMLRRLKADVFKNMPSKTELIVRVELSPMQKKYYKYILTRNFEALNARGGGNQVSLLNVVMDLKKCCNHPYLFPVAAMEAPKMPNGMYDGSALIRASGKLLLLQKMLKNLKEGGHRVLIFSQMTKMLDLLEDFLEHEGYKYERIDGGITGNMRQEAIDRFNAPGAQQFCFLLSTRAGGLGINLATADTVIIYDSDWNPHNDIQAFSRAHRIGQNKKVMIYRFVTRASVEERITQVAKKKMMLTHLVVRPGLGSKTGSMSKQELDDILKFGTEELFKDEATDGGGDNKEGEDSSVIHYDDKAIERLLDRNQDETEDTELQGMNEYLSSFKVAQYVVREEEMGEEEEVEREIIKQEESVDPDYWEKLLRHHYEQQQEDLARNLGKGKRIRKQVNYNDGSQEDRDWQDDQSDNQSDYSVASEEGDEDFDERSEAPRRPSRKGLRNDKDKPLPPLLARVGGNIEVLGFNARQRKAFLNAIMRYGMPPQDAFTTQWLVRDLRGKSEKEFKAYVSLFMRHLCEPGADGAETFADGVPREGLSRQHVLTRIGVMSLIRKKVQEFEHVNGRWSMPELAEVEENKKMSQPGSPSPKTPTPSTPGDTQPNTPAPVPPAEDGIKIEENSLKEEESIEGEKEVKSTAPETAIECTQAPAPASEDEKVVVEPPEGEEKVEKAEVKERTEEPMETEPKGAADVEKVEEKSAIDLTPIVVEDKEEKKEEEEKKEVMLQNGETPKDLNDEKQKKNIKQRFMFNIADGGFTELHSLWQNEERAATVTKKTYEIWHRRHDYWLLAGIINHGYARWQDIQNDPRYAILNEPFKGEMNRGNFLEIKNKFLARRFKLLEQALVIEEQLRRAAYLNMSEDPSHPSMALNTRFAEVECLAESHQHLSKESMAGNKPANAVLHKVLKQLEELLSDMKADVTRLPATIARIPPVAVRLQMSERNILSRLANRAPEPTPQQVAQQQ
row,Structure (SMILES),Kd
1,Cc1cn(-c2cc(NC(=O)c3ccc(C)c(Nc4nccc(-c5cccnc5)n4)c3)cc(C(F)(F)F)c2)cn1 [NILOTINIB],> 30 µM (inactive)
2,C1=C/COCc2cc(ccc2OCCN2CCCC2)Nc2nccc(n2)-c2cccc(c2)COC/1 [PACRITINIB],> 30 µM (inactive)
3,C=CC(=O)N1CCC(Oc2cc3c(Nc4ccc(Cl)c(Cl)c4F)ncnc3cc2OC)CC1 [POZIOTINIB],> 30 µM (inactive)

# Molecular target: T1, Phenylalanine--tRNA ligase beta subunit (Homo sapiens, UniProt Q9NSD9)
# T1 sequence (Q9NSD9 whole entry): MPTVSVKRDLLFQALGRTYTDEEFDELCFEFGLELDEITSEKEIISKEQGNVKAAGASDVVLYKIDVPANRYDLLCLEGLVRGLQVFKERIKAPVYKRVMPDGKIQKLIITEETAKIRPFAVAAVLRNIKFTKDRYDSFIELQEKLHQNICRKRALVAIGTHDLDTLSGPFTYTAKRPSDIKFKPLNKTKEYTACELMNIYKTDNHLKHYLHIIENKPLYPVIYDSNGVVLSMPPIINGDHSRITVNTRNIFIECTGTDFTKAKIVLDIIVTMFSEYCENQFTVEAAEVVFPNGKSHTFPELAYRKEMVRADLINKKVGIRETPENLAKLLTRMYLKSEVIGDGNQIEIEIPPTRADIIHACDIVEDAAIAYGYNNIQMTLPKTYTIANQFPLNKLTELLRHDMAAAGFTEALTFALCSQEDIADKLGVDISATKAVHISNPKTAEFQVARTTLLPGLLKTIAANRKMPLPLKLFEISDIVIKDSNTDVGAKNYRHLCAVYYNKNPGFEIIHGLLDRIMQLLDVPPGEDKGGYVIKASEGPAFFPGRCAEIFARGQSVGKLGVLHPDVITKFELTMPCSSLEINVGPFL
row,Structure (SMILES),Kd
1,Cc1cn(-c2cc(NC(=O)c3ccc(C)c(Nc4nccc(-c5cccnc5)n4)c3)cc(C(F)(F)F)c2)cn1 [NILOTINIB],> 30 µM (inactive)
2,C1=C/COCc2cc(ccc2OCCN2CCCC2)Nc2nccc(n2)-c2cccc(c2)COC/1 [PACRITINIB],> 30 µM (inactive)
3,C=CC(=O)N1CCC(Oc2cc3c(Nc4ccc(Cl)c(Cl)c4F)ncnc3cc2OC)CC1 [POZIOTINIB],> 30 µM (inactive)

# Molecular target: Myosin-14 (Homo sapiens, UniProt Q7Z406)
row,Structure (SMILES),Kd
1,Cc1cn(-c2cc(NC(=O)c3ccc(C)c(Nc4nccc(-c5cccnc5)n4)c3)cc(C(F)(F)F)c2)cn1 [NILOTINIB],> 30 µM (inactive)
2,C1=C/COCc2cc(ccc2OCCN2CCCC2)Nc2nccc(n2)-c2cccc(c2)COC/1 [PACRITINIB],> 30 µM (inactive)

# Molecular target: 26S proteasome regulatory subunit 6B (Homo sapiens, UniProt P43686)
# Sequence (P43686 whole entry): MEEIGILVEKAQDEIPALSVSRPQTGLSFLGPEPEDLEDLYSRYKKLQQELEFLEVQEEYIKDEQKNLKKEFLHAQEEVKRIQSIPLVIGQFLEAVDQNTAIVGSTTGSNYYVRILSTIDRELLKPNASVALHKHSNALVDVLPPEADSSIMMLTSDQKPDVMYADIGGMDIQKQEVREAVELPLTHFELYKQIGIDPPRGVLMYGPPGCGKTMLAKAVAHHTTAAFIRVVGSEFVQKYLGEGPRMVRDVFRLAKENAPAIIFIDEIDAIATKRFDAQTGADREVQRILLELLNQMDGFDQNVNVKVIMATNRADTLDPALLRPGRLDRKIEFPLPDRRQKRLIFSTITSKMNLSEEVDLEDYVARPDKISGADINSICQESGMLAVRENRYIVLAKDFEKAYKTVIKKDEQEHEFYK
row,Structure (SMILES),Kd
1,Cc1cn(-c2cc(NC(=O)c3ccc(C)c(Nc4nccc(-c5cccnc5)n4)c3)cc(C(F)(F)F)c2)cn1 [NILOTINIB],> 30 µM (inactive)
2,C1=C/COCc2cc(ccc2OCCN2CCCC2)Nc2nccc(n2)-c2cccc(c2)COC/1 [PACRITINIB],> 30 µM (inactive)
3,C=CC(=O)N1CCC(Oc2cc3c(Nc4ccc(Cl)c(Cl)c4F)ncnc3cc2OC)CC1 [POZIOTINIB],> 30 µM (inactive)

# Molecular target: Wee1-like protein kinase (Homo sapiens, UniProt P30291)
# Sequence (P30291 whole entry): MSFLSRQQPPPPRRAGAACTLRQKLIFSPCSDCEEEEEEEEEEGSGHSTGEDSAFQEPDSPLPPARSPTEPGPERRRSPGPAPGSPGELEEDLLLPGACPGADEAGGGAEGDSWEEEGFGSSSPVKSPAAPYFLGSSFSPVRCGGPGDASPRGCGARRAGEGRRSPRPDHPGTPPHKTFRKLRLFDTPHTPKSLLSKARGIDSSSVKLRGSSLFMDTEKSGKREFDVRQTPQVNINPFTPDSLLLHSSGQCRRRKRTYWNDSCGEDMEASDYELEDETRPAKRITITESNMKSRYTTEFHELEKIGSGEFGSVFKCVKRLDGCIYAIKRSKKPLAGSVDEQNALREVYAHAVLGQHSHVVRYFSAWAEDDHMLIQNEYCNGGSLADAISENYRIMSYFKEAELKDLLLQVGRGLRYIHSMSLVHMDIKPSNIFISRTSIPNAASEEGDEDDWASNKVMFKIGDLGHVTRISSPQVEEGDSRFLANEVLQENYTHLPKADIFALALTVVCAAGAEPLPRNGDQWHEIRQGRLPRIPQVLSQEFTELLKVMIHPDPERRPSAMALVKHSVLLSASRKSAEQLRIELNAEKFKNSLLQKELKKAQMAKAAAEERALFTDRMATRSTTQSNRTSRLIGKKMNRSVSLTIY
row,Structure (SMILES),Kd
1,C1=C/COCc2cc(ccc2OCCN2CCCC2)Nc2nccc(n2)-c2cccc(c2)COC/1 [PACRITINIB],> 30 µM (inactive)
2,C=CC(=O)N1CCC(Oc2cc3c(Nc4ccc(Cl)c(Cl)c4F)ncnc3cc2OC)CC1 [POZIOTINIB],> 30 µM (inactive)

# Molecular target: T2, Tyrosine--tRNA ligase, cytoplasmic (Homo sapiens, UniProt P54577)
# T2 sequence (P54577 whole entry): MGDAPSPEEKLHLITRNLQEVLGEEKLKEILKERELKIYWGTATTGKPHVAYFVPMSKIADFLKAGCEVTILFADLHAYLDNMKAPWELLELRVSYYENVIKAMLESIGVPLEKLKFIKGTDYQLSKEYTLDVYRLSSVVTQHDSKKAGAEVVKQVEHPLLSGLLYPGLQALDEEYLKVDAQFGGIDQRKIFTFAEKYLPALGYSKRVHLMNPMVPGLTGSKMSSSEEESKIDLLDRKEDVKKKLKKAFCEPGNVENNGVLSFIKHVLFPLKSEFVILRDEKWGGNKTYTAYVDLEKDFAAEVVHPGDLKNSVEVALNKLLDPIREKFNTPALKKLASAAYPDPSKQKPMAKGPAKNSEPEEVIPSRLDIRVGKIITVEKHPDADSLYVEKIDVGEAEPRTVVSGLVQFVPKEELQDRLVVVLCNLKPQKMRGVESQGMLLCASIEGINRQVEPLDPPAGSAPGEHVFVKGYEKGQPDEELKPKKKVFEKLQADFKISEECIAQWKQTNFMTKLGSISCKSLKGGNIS
row,Structure (SMILES),Kd
1,Cc1cn(-c2cc(NC(=O)c3ccc(C)c(Nc4nccc(-c5cccnc5)n4)c3)cc(C(F)(F)F)c2)cn1 [NILOTINIB],> 30 µM (inactive)
2,C1=C/COCc2cc(ccc2OCCN2CCCC2)Nc2nccc(n2)-c2cccc(c2)COC/1 [PACRITINIB],> 30 µM (inactive)
3,C=CC(=O)N1CCC(Oc2cc3c(Nc4ccc(Cl)c(Cl)c4F)ncnc3cc2OC)CC1 [POZIOTINIB],> 30 µM (inactive)

# Molecular target: Ephrin type-A receptor 2 (Homo sapiens, UniProt P29317)
row,Structure (SMILES),Kd
1,C1=C/COCc2cc(ccc2OCCN2CCCC2)Nc2nccc(n2)-c2cccc(c2)COC/1 [PACRITINIB],> 30 µM (inactive)
2,C=CC(=O)N1CCC(Oc2cc3c(Nc4ccc(Cl)c(Cl)c4F)ncnc3cc2OC)CC1 [POZIOTINIB],> 30 µM (inactive)

# Molecular target: Mitogen-activated protein kinase kinase kinase 4 (Homo sapiens, UniProt Q9Y6R4)
row,Structure (SMILES),Kd
1,C1=C/COCc2cc(ccc2OCCN2CCCC2)Nc2nccc(n2)-c2cccc(c2)COC/1 [PACRITINIB],> 30 µM (inactive)
2,C=CC(=O)N1CCC(Oc2cc3c(Nc4ccc(Cl)c(Cl)c4F)ncnc3cc2OC)CC1 [POZIOTINIB],> 30 µM (inactive)

# Molecular target: Putative heat shock protein HSP 90-beta 2 (Homo sapiens, UniProt Q58FF8)
row,Structure (SMILES),Kd
1,Cc1cn(-c2cc(NC(=O)c3ccc(C)c(Nc4nccc(-c5cccnc5)n4)c3)cc(C(F)(F)F)c2)cn1 [NILOTINIB],> 30 µM (inactive)
2,C1=C/COCc2cc(ccc2OCCN2CCCC2)Nc2nccc(n2)-c2cccc(c2)COC/1 [PACRITINIB],> 30 µM (inactive)

# Molecular target: Inosine-5'-monophosphate dehydrogenase 2 (Homo sapiens, UniProt P12268)
row,Structure (SMILES),Kd
1,Cc1cn(-c2cc(NC(=O)c3ccc(C)c(Nc4nccc(-c5cccnc5)n4)c3)cc(C(F)(F)F)c2)cn1 [NILOTINIB],> 30 µM (inactive)
2,C1=C/COCc2cc(ccc2OCCN2CCCC2)Nc2nccc(n2)-c2cccc(c2)COC/1 [PACRITINIB],> 30 µM (inactive)

# Molecular target: Interleukin-1 receptor-associated kinase 1 (Homo sapiens, UniProt P51617)
# Sequence (P51617 whole entry): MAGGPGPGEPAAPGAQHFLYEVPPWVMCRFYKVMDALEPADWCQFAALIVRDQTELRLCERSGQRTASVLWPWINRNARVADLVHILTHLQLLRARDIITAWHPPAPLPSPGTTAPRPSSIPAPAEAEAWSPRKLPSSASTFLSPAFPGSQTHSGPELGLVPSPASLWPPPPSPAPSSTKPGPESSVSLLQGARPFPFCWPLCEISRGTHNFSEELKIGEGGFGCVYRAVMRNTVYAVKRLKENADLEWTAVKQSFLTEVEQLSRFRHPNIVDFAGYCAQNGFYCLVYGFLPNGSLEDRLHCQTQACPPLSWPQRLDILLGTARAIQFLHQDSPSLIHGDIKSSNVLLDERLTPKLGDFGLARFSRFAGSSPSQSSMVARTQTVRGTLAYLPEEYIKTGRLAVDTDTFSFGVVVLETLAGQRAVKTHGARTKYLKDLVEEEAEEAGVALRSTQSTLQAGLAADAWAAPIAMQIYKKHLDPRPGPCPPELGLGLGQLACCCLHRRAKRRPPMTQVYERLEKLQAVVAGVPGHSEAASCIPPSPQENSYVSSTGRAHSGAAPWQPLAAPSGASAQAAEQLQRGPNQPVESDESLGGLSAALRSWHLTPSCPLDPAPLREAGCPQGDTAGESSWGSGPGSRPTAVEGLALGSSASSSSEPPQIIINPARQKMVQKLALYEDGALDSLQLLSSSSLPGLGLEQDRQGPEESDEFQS
row,Structure (SMILES),Kd
1,C1=C/COCc2cc(ccc2OCCN2CCCC2)Nc2nccc(n2)-c2cccc(c2)COC/1 [PACRITINIB],0.258 µM (active)
2,C=CC(=O)N1CCC(Oc2cc3c(Nc4ccc(Cl)c(Cl)c4F)ncnc3cc2OC)CC1 [POZIOTINIB],> 30 µM (inactive)

# Molecular target: T3, Serine/threonine-protein kinase STK11 (Homo sapiens, UniProt Q15831)
# T3 sequence (Q15831 whole entry): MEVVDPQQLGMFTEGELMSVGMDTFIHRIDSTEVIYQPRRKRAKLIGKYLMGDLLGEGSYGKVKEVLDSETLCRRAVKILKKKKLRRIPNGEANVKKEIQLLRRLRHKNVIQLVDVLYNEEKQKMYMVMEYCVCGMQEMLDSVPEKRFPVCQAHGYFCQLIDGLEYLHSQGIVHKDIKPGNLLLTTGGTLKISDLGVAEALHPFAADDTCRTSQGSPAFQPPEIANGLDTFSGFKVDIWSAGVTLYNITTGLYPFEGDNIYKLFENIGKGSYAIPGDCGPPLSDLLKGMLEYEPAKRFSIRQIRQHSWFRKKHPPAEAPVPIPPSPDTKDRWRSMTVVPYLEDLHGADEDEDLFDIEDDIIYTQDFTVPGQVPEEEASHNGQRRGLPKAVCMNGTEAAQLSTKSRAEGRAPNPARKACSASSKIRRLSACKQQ
Structure (SMILES),pKd,Kd
C1=C/COCc2cc(ccc2OCCN2CCCC2)Nc2nccc(n2)-c2cccc(c2)COC/1 [PACRITINIB],8.52,
C=CC(=O)N1CCC(Oc2cc3c(Nc4ccc(Cl)c(Cl)c4F)ncnc3cc2OC)CC1 [POZIOTINIB],,> 30 µM (inactive)

# Molecular target: Adenosine kinase (Homo sapiens, UniProt P55263)
# Sequence (P55263 whole entry): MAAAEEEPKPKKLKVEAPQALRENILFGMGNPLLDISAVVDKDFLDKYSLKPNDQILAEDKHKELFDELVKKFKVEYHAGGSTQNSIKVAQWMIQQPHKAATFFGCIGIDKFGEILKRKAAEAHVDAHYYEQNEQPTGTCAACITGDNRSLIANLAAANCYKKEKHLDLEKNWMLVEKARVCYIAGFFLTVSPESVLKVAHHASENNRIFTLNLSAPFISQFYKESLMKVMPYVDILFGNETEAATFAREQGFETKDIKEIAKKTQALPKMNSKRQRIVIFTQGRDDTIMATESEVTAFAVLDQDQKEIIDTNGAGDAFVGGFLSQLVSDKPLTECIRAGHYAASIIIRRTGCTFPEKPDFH
row,Structure (SMILES),Kd
1,Cc1cn(-c2cc(NC(=O)c3ccc(C)c(Nc4nccc(-c5cccnc5)n4)c3)cc(C(F)(F)F)c2)cn1 [NILOTINIB],> 30 µM (inactive)
2,C1=C/COCc2cc(ccc2OCCN2CCCC2)Nc2nccc(n2)-c2cccc(c2)COC/1 [PACRITINIB],> 30 µM (inactive)
3,C=CC(=O)N1CCC(Oc2cc3c(Nc4ccc(Cl)c(Cl)c4F)ncnc3cc2OC)CC1 [POZIOTINIB],> 30 µM (inactive)
